Results on one molecule are retold here after patent publication US20090061515A1, “Methods of inhibiting or suppressing cellular proliferation” (priority 2007, published 2009).

Holding throughout (type): cell-based
Test [1] relates to coronary artery smooth muscle cells (CASMC). The test can be described thus: Cell proliferation and viability assays (CyQuant, CellTiter-Glo, CellTiter 96), CASMC (Example 5). The note with it: 48 hours. An excerpt: Multiple assays were used to test a variety of cellular properties expressed after exposure of different cells types to 5,6-dihydroxy-hexan-2-one. A cell proliferation assay available under the trade designation CyQuant from Invitrogen Corporation (Carlsbad, Calif.) determines the density of cells in culture by using a green fluorescent dye which fluoresces when bound to cellular nucleic acids. The amount of nucleic acid present is proportional to the amount of living cells in culture. […]
The amount of ATP present is proportional to the measured amount of a luminescent signal and therefore the amount of viable cells. […] The absorbance read is proportional to the amount of metabolic activity present in the cells.
Normal human dermal fibroblast (NHDF) cells and coronary artery smooth muscle cells (CASMC) in culture were exposed to 5,6-dihydroxy-hexan-2-one at concentrations of 10 microgram/ml, 1 mg/ml, and 10 mg/ml, for 48 hours, after which the cell culture wells were analyzed for cell proliferation and viability. […] FIG. 17 is a graphical representation of fibroblast cell numbers measured after 48 hours exposure to different concentrations of 5,6-dihydroxy-hexan-2-one. FIG. 18 is a graphical representation of smooth muscle cell numbers measured after 48 hours exposure to different concentrations of 5,6-dihydroxy-hexan-2-one. […]
(Cellular ATP, detected with luciferase, serves as a proxy for viable cell number.)

Test [2] deals with Normal Human Dermal Fibroblast (NHDF) cells. The test can be described thus: Cell migration into scraped monolayer, NHDF (Example 5). The note with it: 1 and 10 mg/ml, 48 hours exposure then 72 hours growth. How it is done:
(§1) In a similar manner, cell migration was explored in vitro by scraping the cell monolayer and culturing the cells in the presence of 5,6-dihydroxy-hexan-2-one at concentrations of 1 mg/ml and 10 mg/ml. FIGS. 20(a)-(l) are pictures that visually display the migration of coronary artery smooth muscle cells (CASMC) (FIGS. 20(a)-(f)) and normal human dermal fibroblast (NHDF) cells (FIGS. 20(g)-(l)) exposed to various concentrations of 5,6-dihydroxy-hexan-2-one after 48 hours exposure, then cultured an additional 72 hours after removal of the 5,6-dihydroxy-hexan-2-one as described in Example 5. Specifically, FIGS. 20(a) and (b) represent the CASMC control at time zero and 72 hours, respectively; FIGS. 20(c) and (d) represent CASMC (10 mg/ml) at time zero and 72 hours, respectively; and FIGS. 20(e) and (f) represent CASMC (1 mg/ml) at time zero and 72 hours, respectively. FIGS. 20(g) and (h) represent the NHDF cell control at time zero and 72 hours, respectively; FIGS. 20(i) and (j) represent NHDF cells (10 mg/ml) at time zero and 72 hours, respectively; and FIGS. 20(k) and (l) represent NHDF cells (1 mg/ml) at time zero and 72 hours, respectively.
(§2) Cell migration judged by the ability of cells to repopulate the scraped “acellular” space over time indicated no microscopically identifiable effect by the agent at the concentrations tested. […]

Test [3] deals with coronary artery smooth muscle cells (CASMC). The test can be described thus: Cell migration into scraped monolayer, CASMC (Example 5). The note with it: 1 and 10 mg/ml, 48 hours exposure then 72 hours growth. The protocol:
as §1, §2

For the molecule `CC(=O)CCC(O)CO` (stereo not shown) [5,6-dihydroxy-hexan-2-one], the cell proliferation result in test [1] (10 mg/ml) is “inhibition of cell proliferation”; in test [1] (other concentrations (10 microgram/ml, 1 mg/ml)) it was “did not show this effect”. In addition, the cell migration entry in test [2] and in test [3] was “not affected” each time.
